Experimental data taken from patent US20260048151A1, “HEMICYANINE PUSH-PULL DYES BASED ON CHROMENE ELECTRON DONORS” (UNIVERSITY OF CONNECTICUT, priority 2022, published 2026).

Assay: Absorption and emission spectra, fluorescence quantum efficiency in EtOH, PBS and lipid vesicles (MLV)
Assay type: physicochemical
Description: FIGS. 2A-2C are plots showing absorption and emission spectra of 2a, in comparison with ElectroFluor630, in various solvent environments: MLV, EtOH, and PBS. Multilamellar lipid vesicle suspension (MLV) was prepared by sonicating soybean phosphatidylcholine in PBS buffer (2 mg/mL) to mimic the cell membrane environment. The emission spectra in ethanol and PBS buffer were scaled 10 and 20 times respectively relative to the emission spectra in MLV. Excitation wavelength is 580 nm for emission spectra.
All chemicals were purchased from commercial sources (Sigma Aldrich, Acros, TCI America, Combi-Blocks, and others) and used without further purification. Column chromatography was generally performed on COMBIFLASH NextGen 300 using normal phase silica columns except that for some final dye products amine silica columns were used. Thin layer chromatography (TLC) was carried out on EM 60 F-254 plastic TLC plates. NMR spectra were recorded on Varian 400 MHz, 500 MHz, and 800 MHz instruments at the UConn Heath Structural Biology Facility. All spectra are referenced internally to TMS or residual solvent signals. Electrospray ionization (ESI) high-resolution mass spectra (HRMS) were obtained on a QStar Elite (AB Sciex) at the Department of Chemistry, University of Connecticut. UV/Vis absorption spectra were recorded on a UV-Visible spectrophotometer (Shimadzu, UV-1601PC) and fluorescence emission spectra on a Horiba Fluorolog spectrofluorometer (Horiba, Inc., Edison, NJ). Fluorescence quantum yield for dyes was determined by a relative method using Rhodamine 6G (excited at 480 nm, FQY=0.95 in EtOH) or cresyl violet (excited at 580 nm, FQY=0.54 in MeOH) as the references.
Absorbance and the fluorescence properties of the new VSDs were determined. The absorption and emission spectra for 2a, together with ElectroFluor630, in aqueous buffer (PBS), ethanol, and when intercalated in the membrane of lipid vesicles are shown in FIGS. 2A-C. […] This is particularly advantageous for fluorescence imaging because background fluorescence from unbound dye is negligible. Another characteristic of the hemicyanine VSDs that is preserved by 2a in FIGS. 2A-C is the large Stokes shift between the excitation and emission maxima. 125 nm for the membrane-bound dye. This is also a benefit for fluorescence detection and imaging, as the fluorescence can be readily filtered from scattered exciting light. The broad wavelength window afforded by the spectra is also an important benefit for the design of experiments with multiple fluorescent sensors. For comparative purposes, certain VSDs are shown below.
As expected, the spectra are largely insensitive to alkyl substitution. Table 1 also includes data for ElectroFluor630 (aka Di-4-ANEQ (F) PTEA) for comparison. The absorption maxima of 2a in ethanol (EtOH), aqueous buffer (PBS) and when bound to lipid membranes (multilamellar vesicles, MLV) are red shifted by 77 nm, 63 nm and 63 nm, respectively, relative to ElectroFluor630, which is isostructural to 2a. […] The absorption and emission spectra of 2a, 2b, and 2c are all shifted to the red by 50-65 nm relative to ElectroFluor630.

absorption maximum (in EtOH): 696 nm
absorption maximum (in MLV (multilamellar lipid vesicles)): 599 nm
absorption maximum (in PBS): 597 nm
Fluorescence quantum efficiency (FQE) (in lipid vesicle suspensions): 0.10
emission maximum (membrane-bound (MLV)): 734 nm
SMILES: CCCCCCN(CCCCCC)c1ccc2c(c1)OCC(/C=C/c1c(F)c[n+](CCC[N+](CC)(CC)CC)c3ccccc13)=C2.[Br-].[Br-] [2c]
